{"source": "patent US5190919A", "about": "“Antihemostatic Factor VII peptides” (Board of Regents, The University of Texas System, priority 1989, dated 1993)", "key": {"[1]": {"biological_target": "T1, Factor VII-tissue factor complex (Homo sapiens, UniProt P08709+P13726)", "T1 construct": "Factor VII/VIIa (6), Factor X (7), and Factor Xa (8) were isolated as previously reported; Tissue factor was prepared from human brain as described (9); from tissue; host or cells: Tissue factor from human brain (gift of Dr. J. H. Morrissey)", "T1 sequence (P13726 33-295, one chain of several)": "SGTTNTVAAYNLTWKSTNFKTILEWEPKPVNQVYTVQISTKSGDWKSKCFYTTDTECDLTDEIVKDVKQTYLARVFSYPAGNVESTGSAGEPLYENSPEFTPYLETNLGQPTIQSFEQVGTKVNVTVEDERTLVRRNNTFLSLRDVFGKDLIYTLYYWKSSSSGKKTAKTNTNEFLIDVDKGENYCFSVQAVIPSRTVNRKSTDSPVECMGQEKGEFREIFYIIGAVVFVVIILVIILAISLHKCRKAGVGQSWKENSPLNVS", "experiment": "Rate of Factor X activation, two-stage chromogenic (amidolytic) assay with purified proteins", "type": "biochemical", "details": "for IC50: derivatives of peptide 194-214 (FIG. 4), read-out: Apparent CI50, rate of Factor Xa formation", "experimental": "(§1) 3. Rate of Factor X activation: The effect of the synthetic peptides on the rate of activation of Factor X was analyzed in a purified system employing chromogenic assays. For the inhibition experiments, peptides were diluted in 20 mM Tris-HCl, 150 mM NaCl, pH 7.4 (TBS) and preincubated with 10 microliters each of Factor X (180 nM) and tissue factor (0.075%) at 37 degrees Centigrade in a total volume of 140 microliters adjusted with TBS containing 1% bovine serum albumin (BSA) and 5 mM CaCl2. After 30 minutes, Factor X activation was initiated by the addition of 10 microliters of Factor VII (2 pM). At defined timed intervals, 20 microliter aliquots were removed and added to a microtiter plate containing 80 microliters of 50 mM Tris-HCl, 225 mM NaCl and 10 mM EDTA, pH 8.2. Following sample collection, 50 microliters of 0.6 mM chromogenic substrate was added and the rate of change in the absorbance at 405 nm was monitored for 10 minutes using a Vmax Kinetic Microplate Reader (Molecular Devices, Inc., Palo Alto, Calif.). The rate of Factor Xa formation was calculated from the slope of linear regression of data plotted as a function of the initial rate of hydrolysis (OD405 /min) versus time and expressed as OD405 /min^2.\n(§2) 5. Inhibition assays: The inhibition of Factor VII function was determined in the two-stage chromogenic assay described in Example I-A, 3. The peptides were initially screened at 200 μM added concentration. To determine the concentration of peptide required to inhibit the rate of Factor X activation by 50% (CI50), peptides at various concentrations or buffer (TBS-BSA) were incubated with their respective complexes. Following the addition of Factor VII, the rate of Factor Xa generation was determined and the percent of Factor X activation in the presence of different concentrations of Factor VII peptides relative to buffer controls was calculated. Analogous determinations of the CI50 values were measured in the specific coagulation assay outlined above. Factor VII activity in the presence of varying concentrations of peptide was measured by comparing the clotting times to a standard curve constructed from the log of the clot time versus the log of Factor VII concentration in the same incubation mixtures described for the peptides.\n(§3) Kinetic analysis of multiple inhibitors known to be noncompetitive in nature was conducted holding the concentration of the first inhibitory peptide constant and varying the concentration of a second inhibitory peptide. The analysis for mutual exclusivity of the inhibitory peptides employed the methods adapted from Segel (12). […] Regression lines which intersect with one another indicate mutual non-exclusivity of one peptide to another, i.e. tested peptides act as regions which are spatially separate from one another.\n(§4) Factor VII function results from a two-step mechanism. First, Factor VII must associate with tissue factor in order to form the active macromolecular complex and second, Factor VII activity within the macromolecular complex can be measured by the conversion of substrate to product, e.g. activation of Factor X. The peptides of the present invention were tested for their ability to inhibit Factor X activation by employing the two-stage chromogenic assay described in Example I-A, 3. Inhibition of Factor X activation measured by this assay detects both of the steps stated for Factor VII function. To verify the inhibitory effect of the synthetic peptides, each of the components were titrated. […] Factor X was titrated against the preformed Factor VII-tissue factor complex in the presence of at least 10^4 molar excess of each peptide. Selected peptides were inoubated with tissue factor and Factor X for 30 minutes at […] before the addition of Factor VII. This preincubation time was sufficient for the peptides to reach equilibrium with the target protein (13). […]"}, "[2]": {"test_system": "Factor VII-tissue factor complex", "experiment": "Rate of Factor X activation, two-stage chromogenic (amidolytic) assay with purified proteins", "type": "biochemical, human", "details": "for Factor Xa Formation (% of Control Rate): 200 μM of each synthetic peptide, amidolytic assay, purified proteins; for Dose-dependent inhibition of the rate of Factor Xa formation / Factor VII activity: result in words", "experimental": "as §1, §2, §3, §4"}, "Factor VII": {"biological_target": "T2, Factor VII (Homo sapiens, UniProt P08709)", "T2 construct": "Factor VII/VIIa (6), Factor X (7), and Factor Xa (8) were isolated as previously reported", "T2 sequence (P08709 61-466)": "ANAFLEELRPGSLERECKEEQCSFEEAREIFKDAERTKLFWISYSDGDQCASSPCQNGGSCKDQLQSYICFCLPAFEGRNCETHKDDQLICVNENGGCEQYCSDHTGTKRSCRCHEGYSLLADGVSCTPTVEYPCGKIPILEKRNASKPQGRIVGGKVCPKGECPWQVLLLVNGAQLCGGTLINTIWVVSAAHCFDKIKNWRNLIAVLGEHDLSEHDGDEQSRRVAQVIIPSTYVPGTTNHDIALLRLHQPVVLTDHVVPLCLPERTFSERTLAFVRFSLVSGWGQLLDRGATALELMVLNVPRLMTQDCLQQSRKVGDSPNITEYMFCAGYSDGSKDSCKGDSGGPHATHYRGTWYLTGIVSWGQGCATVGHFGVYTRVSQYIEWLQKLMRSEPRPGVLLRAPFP", "experiment": "Two-stage clotting assay specific for Factor VII function in Factor VII-depleted plasma", "type": "biochemical", "details": "for IC50: Table 2, Factor VII-depleted plasma, tissue factor, read-out: Concentration for 50% Inhibition, VIIa Coagulant Activity", "experimental": "4. Coagulation assays: The effect of the synthetic peptides and antibodies to them on Factor VII coagulation activity was determined using two-stage clotting assays specific for Factor VII function.\nSynthetic peptides were individually preincubated with 20 μl each of plasma immunochemically depleted of Factor VII and 0.25% tissue factor at 37 degrees Centigrade in a total volume of 190 μl adjusted with TBS containing 1% BSA and 5 mM CaCl2. At the end of 30 minutes, coagulation was initiated by the addition of 10 μl of Factor VII (1 nM). The time for clot formation was measured using a Fibrometer (BBL, Cockesysville, Md.). Factor VII activity in the presence of varying concentrations of peptide was quantitated by comparing their clotting times to a standard curve constructed from the log of the clot time versus the log of a known amount of Factor VII in the same reaction mixture without added peptide.\nas §2, with “To determine the concentration of peptide required to inhibit the rate of Factor X activation by 50% (CI50), peptides at various concentrations or buffer (TBS-BSA) were incubated with their respective complexes.” left out\nBased on the results of the chromogenic assays, three peptides, 208-229, 285-305 and 276-390, were selected for further study for their ability to inhibit a coagulation-based assay designed to measure Factor VII activity. […] After Factor VII was added, the time of clot formation was determined and quantitated."}, "[3]": {"details": "Table 4, derivatives of inhibitory peptides, read-out: CI50, concentration of peptide inhibiting the rate of Factor Xa activation by 50%"}}, "note": "Read-outs that look alike come from different tables or passages of the source. Ends that are not written are not given here.", "data": [{"substance": "193-203: Factor VII region II synthetic peptide used in mixed inhibition; possibly the 196-203 of Table 4 (YPCGKIPILEK; UniProt P08709 193-203, looked up, fragment) [Peptide 193-203]", "values": [{"measurement": "Mixed inhibition, mutual exclusivity of peptides 209-221 and 193-203", "setting": "[1]; Dixon plots, 193-203 at 0, 14, 28 μM (FIG. 6A), parallel regression lines", "result": "mutually exclusive"}]}, {"substance": "AVLGEHDLSEHDG [Peptide 206-218, AVLGEHDLSEHDG]", "values": [{"measurement": "IC50", "setting": "[1]", "result": "~50", "unit": "µM"}]}, {"substance": "CFDKIKNWRNLIAVLGEHDLS-NH2 [Peptide 194-214]", "values": [{"measurement": "IC50", "setting": "[1]", "result": "~70", "unit": "µM"}]}, {"substance": "GEHDLSEHDGDEQ [Peptide 209-221, GEHDLSEHDGDEQ]", "values": [{"measurement": "IC50", "setting": "[1]", "result": "~70", "unit": "µM"}]}, {"substance": "GKVCPKGEC [Peptide 156-164]", "values": [{"measurement": "Factor Xa Formation (% of Control Rate)", "setting": "[2]", "result": "97 % of Control Rate"}]}, {"substance": "GQLLDRGATALELMVLNVPRLGC-NH2 [Peptide 285-305]", "values": [{"measurement": "Reduction of the rate and extent of Factor X activation", "setting": "[2]; 9.5 μM peptide, varying Factor X concentration (FIG. 1)", "result": "about 50%"}, {"measurement": "Factor Xa Formation (% of Control Rate)", "setting": "[2]", "result": "0 % of Control Rate"}, {"measurement": "Inhibition of the rate of Factor Xa formation relative to control reactions", "setting": "[2]; 200 μM peptide", "result": "completely inhibited"}, {"measurement": "Mixed inhibition, mutual exclusivity of peptides 209-221 and 285-305", "setting": "[2]; Dixon plots, 285-305 at 0, 1.5, 3.0 μM (FIG. 6B), lines intersect above abscissa", "result": "lack of mutual exclusively"}, {"measurement": "Concentration for 50% inhibition, fold less than that for peptide 44-50, 194-214, 208-229 or 376-390", "setting": "[2]; FIG. 2", "result": "15 to 20", "unit": "fold"}, {"measurement": "Concentration for 50% inhibition, fold less than that seen with peptides 170-178 and 330-340", "setting": "[2]; FIG. 2", "result": "75 to 100", "unit": "fold"}, {"measurement": "IC50", "setting": "[2]; Table 2, read-out: Concentration for 50% Inhibition, Rate of Factor Xa Formation", "result": 3, "unit": "µM"}, {"measurement": "IC50", "setting": "[2]; [3]", "result": 3, "unit": "µM"}, {"measurement": "Ki", "setting": "[2]; from Dixon plots of the rate of Factor Xa formation, three Factor X concentrations, read-out: Ki, peptide inhibition constants for Factor VII activity", "result": "2.8 ± 0.4", "unit": "µM"}, {"measurement": "Dose-dependent inhibition of the rate of Factor Xa formation / Factor VII activity", "setting": "[2]", "result": "significantly inhibit the rate of Factor Xa formation in a dose-dependent manner"}, {"measurement": "Inhibition of clot formation", "setting": "Factor VII; varying peptide concentrations (FIG. 7)", "result": "inhibited clot formation in a dose-dependent manner"}]}, {"substance": "LGEHDLSEHDGDEQSRRVAQVIGC-NH2 [Peptide 208-229]", "values": [{"measurement": "IC50", "setting": "[1]", "result": "~50", "unit": "µM"}, {"measurement": "IC50", "setting": "Factor VII", "result": 225, "unit": "µM"}]}, {"substance": "PRLMTQDCLQQSRKVGDSPNITEYMFC [Peptide 303-329]", "values": [{"measurement": "Factor Xa Formation (% of Control Rate)", "setting": "[2]", "result": "92 % of Control Rate"}]}, {"substance": "R-T-K-L-F-W-I-S-Y-S-D-G-D-Q-C (RTKLFWISYSDGDQC) [Peptide 36-50]", "values": [{"measurement": "Dose-dependent inhibition of the rate of Factor Xa formation / Factor VII activity", "setting": "[2]", "result": "significantly inhibit the rate of Factor Xa formation in a dose-dependent manner"}]}, {"substance": "RNLIAVLGEHDLSE [Peptide 202-214, RNLIAVLGEHDLSE]", "values": [{"measurement": "IC50", "setting": "[2]; [3]", "result": 205, "unit": "µM"}]}, {"substance": "VYTRVSQYIEWLQKL-NH2 [Peptide 376-390, VYTRVSQYIEWLQKL]", "values": [{"measurement": "IC50", "setting": "Factor VII", "result": 172, "unit": "µM"}]}]}
